23 molecules from patent US9796700B2 (Celgene CAR LLC, priority 2013, dated 2017) can be followed below.

Like-named read-outs stand apart in the source and are kept apart here.

One experiment addresses Erk1 (Homo sapiens (Human), UniProt P27361). The experiment in a line: Protein Mass Modification Assay (intact protein MALDI). The experiment is classed as binding. The gist of the method:
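Percent covalent modification comes from the intact-protein MALDI centroid mass shift, treated versus control, divided by compound MW. Before analysis, human Erk1 was exposed to compound at 10-fold excess over protein for 60 min at room temperature.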

The target of a further experiment is MEK1 activated ERK1 (Homo sapiens (Human), UniProt P27361). The experiment in a line: Omnia continuous-read kinase assay for potency against MEK1 activated ERK1. The class given is biochemical. In short, it runs like this: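 Apparent IC50 came from initial reaction slopes (RFU vs time) plotted against log inhibitor with a variable-slope fit. Reactions were started with ERK1 (4 nM final) added to 50 μM ATP, roughly at its appKM, and 10 μM Sox-conjugated ST17 peptide in 20 mM Tris pH 7.5, 5 mM MgCl2. Fluorescence was monitored every 71 seconds.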
Sequence of MEK1 activated ERK1 (P27361 whole entry): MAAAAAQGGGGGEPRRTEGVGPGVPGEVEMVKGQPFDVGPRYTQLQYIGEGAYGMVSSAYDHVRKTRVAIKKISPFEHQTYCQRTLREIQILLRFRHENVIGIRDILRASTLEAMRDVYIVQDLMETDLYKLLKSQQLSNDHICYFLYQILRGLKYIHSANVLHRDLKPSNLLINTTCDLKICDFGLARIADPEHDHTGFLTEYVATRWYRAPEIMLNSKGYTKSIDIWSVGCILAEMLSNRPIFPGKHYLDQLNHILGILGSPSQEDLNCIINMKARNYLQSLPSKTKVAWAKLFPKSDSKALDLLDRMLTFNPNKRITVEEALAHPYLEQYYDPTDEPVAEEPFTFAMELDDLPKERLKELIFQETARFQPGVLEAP

[1] abbreviates: MEK1 activated ERK1, WT, ATP at KM.
Setting [2] is: read-out: ERK1 Omnia WT ATP KM IC50.

Sequence of Erk1 (P27361 whole entry, looked up): as the sequence (P27361 whole entry) above

As for `C=CC(=O)Nc1cc(OC)ccc1Nc1nc(Nc2cc(C(N)=O)ccc2C)ncc1Cl` [Compound I-237, 3-((4-((2-acrylamido-4-methoxyphenyl)amino)-5-chloropyrimidin-2-yl)amino)-4-methylbenzamide], the “ERK1 Mass Mod (%)” value on Erk1 was “E (provided a mass modification of ≧70%)”. Further, the IC50 on MEK1 activated ERK1 (setting [1]) is below 0.1 µM.

Take `C=C(C)S(=O)(=O)Nc1cc(F)ccc1Nc1nc(Nc2cc(C(C)=O)ccc2C)ncc1Cl` [Compound I-243, N-(2-((2-((5-acetyl-2-methylphenyl)amino)-5-chloropyrimidin-4-yl)amino)-5-fluorophenyl)prop-1-ene-2-sulfonamide]: the “ERK1 Mass Mod (%)” value on Erk1 was “G (key: E: provided a mass modification of ≧70%; F: provided a mass modification of 31-69%; G: proived a mass modification ≦30%)”. Moreover, the half-maximal inhibitory concentration (IC50) on MEK1 activated ERK1 (setting [2]) was below 0.1 µM.

For `C=C(C)S(=O)(=O)Nc1cc(C)ccc1Nc1nc(Nc2cc(C(C)=O)ccc2C)ncc1C(F)(F)F` [Compound I-98, N-(2-((2-((5-acetyl-2-methylphenyl)amino)-5-(trifluoromethyl)pyrimidin-4-yl)amino)-5-methylphenyl)prop-1-ene-2-sulfonamide], the “ERK1 Mass Mod (%)” value at Erk1 is listed as “E (provided a mass modification of ≧70%)”. Moreover, the IC50 at MEK1 activated ERK1 (setting [1]) is below 0.1 µM.

`C=CC(=O)Nc1ccccc1Nc1nc(Nc2cc(C(N)=O)ccc2OC)ncc1C(F)(F)F` [Compound I-70, 3-((4-((2-Acrylamidophenyl)amino)-5-(trifluoromethyl)pyrimidin-2-yl)amino)-4-methoxybenzamide]: the “ERK1 Mass Mod (%)” value on Erk1 is “E (provided a mass modification of ≧70%)”. The 50% inhibitory concentration (IC50) at MEK1 activated ERK1 (setting [1]) is below 0.1 µM.

For `C=CC(=O)Nc1cc(C)ccc1Nc1nc(Nc2cc(OC)nc(N3CC(O)C3)c2)ncc1C(F)(F)F` [Compound I-328, N-(2-((2-((2-(3-hydroxyazetidin-1-yl)-6-methoxypyridin-4-yl)amino)-5-(trifluoromethyl)pyrimidin-4-yl)amino)-5-methylphenyl)acrylamide], the “ERK1 Mass Mod (%)” value at Erk1 is “E (provided a mass modification of ≧70%)”. The IC50 on MEK1 activated ERK1 (setting [1]) was below 0.1 µM.

On to `C=CC(=O)Nc1ccccc1Nc1nc(N[C@H]2CCCN(C(=O)OC)C2)ncc1C(F)(F)F` [Compound I-17, (S)-Methyl 3-((4-((2-acrylamidophenyl)amino)-5-(trifluoromethyl)pyrimidin-2-yl)amino) piperidine-1-carboxylate], for which the “ERK1 Mass Mod (%)” value on Erk1 is “F (provided a mass modification of 31-69%)”. At MEK1 activated ERK1 (setting [1]), the concentration for half-maximal inhibition (IC50) was below 0.1 µM.

With `CC(C)=CC(=O)c1ccccc1Nc1nc(Nc2cc(C(N)=O)ccc2C)ncc1Cl` [Compound I-216, 3-((5-chloro-4-((2-(3-methylbut-2-enoyl)phenyl)amino)pyrimidin-2-yl)amino)-4-methylbenzamide], the “ERK1 Mass Mod (%)” value on Erk1 is reported as “G (proived a mass modification ≦30%)”. At MEK1 activated ERK1 (setting [1]), the IC50 was above 1 µM.

As to `C=CC(=O)Nc1ccccc1Nc1nc(N[C@H]2CCCN(C(=O)CCCC(=O)NCCCOCCOCCOCCCNC(=O)CCCC[C@@H]3SC[C@@H]4NC(=O)N[C@@H]43)C2)ncc1Cl` [Compound I-303, 5-((S)-3-((4-((2-acrylamidophenyl)amino)-5-chloropyrimidin-2-yl)amino)piperidin-1-yl)-5-oxo-N-(15-oxo-19-((3aS,4S,6aR)-2-oxohexahydro-1H-thieno[3,4-d]imidazol-4-yl)-4,7,10-trioxa-14-azanonadecyl)pentanamide], on Erk1, the “ERK1 Mass Mod (%)” value was “E (provided a mass modification of ≧70%)”. Also, at MEK1 activated ERK1 (setting [1]), the IC50 is above 1 µM.

As for `C=CC(=O)Nc1cc(C)ccc1Nc1nc(N[C@H]2CCCN(C(C)=O)C2)ncc1Cl` [Compound I-139, (S)—N-(2-((2-((1-acetylpiperidin-3-yl)amino)-5-chloropyrimidin-4-yl)amino)-5-methylphenyl)acrylamide], on Erk1, the “ERK1 Mass Mod (%)” value is reported as “E (key: E: provided a mass modification of ≧70%; F: provided a mass modification of 31-69%; G: proived a mass modification ≦30%)”. Also, the IC50 on MEK1 activated ERK1 (setting [2]) was below 0.1 µM.

Turning to `C=CC(=O)Nc1cc(OC)ccc1Nc1nc(Nc2cc(OC)nc(N3CCN(CC)CC3)c2)ncc1C(F)(F)F` [Compound I-88, N-(2-((2-((2-(4-Ethylpiperazin-1-yl)-6-methoxypyridin-4-yl)amino)-5-(trifluoromethyl)pyrimidin-4-yl)amino)-5-methoxyphenyl)acrylamide], at Erk1, the “ERK1 Mass Mod (%)” value was “E (provided a mass modification of ≧70%)”. Also, the concentration for half-maximal inhibition (IC50) at MEK1 activated ERK1 (setting [1]) is below 0.1 µM.

With `C=CC(=O)Nc1ccccc1Nc1nc(Nc2ccc(N3CCN(C(C)=O)CC3)cc2OC)ncc1F` [Compound I-153, N-(2-((2-((4-(4-acetylpiperazin-1-yl)-2-methoxyphenyl)amino)-5-fluoropyrimidin-4-yl)amino)phenyl)acrylamide], at Erk1, the “ERK1 Mass Mod (%)” value is recorded as “F (provided a mass modification of 31-69%)”. Also, the IC50 at MEK1 activated ERK1 (setting [1]) was above 1 µM.

As to `C=CC(=O)Nc1ccccc1Nc1nc(N[C@H]2CCCN(S(C)(=O)=O)C2)ncc1Cl` [Compound I-125, (S)—N-(2-((5-chloro-2-((1-(methylsulfonyl)piperidin-3-yl)amino)pyrimidin-4-yl)amino)phenyl)acrylamide], the “ERK1 Mass Mod (%)” value on Erk1 was “E (provided a mass modification of ≧70%)”. Further, the IC50 on MEK1 activated ERK1 (setting [1]) was below 0.1 µM.

For the molecule `C=CC(=O)Nc1ccccc1Nc1nc(Nc2ccc(N3CCC[C@H]3CO)cc2C#N)ncc1Cl` [Compound I-172, (S)—N-(2-((5-chloro-2-((2-cyano-4-(2-(hydroxymethyl)pyrrolidin-1-yl)phenyl)amino)pyrimidin-4-yl)amino)phenyl)acrylamide], the “ERK1 Mass Mod (%)” value on Erk1 is given as “F (provided a mass modification of 31-69%)”. Moreover, on MEK1 activated ERK1 (setting [1]), the concentration for half-maximal inhibition (IC50) was above 1 µM.

`C/C=C/C(=O)Nc1ccccc1Nc1nc(Nc2cc(C(N)=O)ccc2C)ncc1Cl` [Compound I-219, (E)-3-((4-((2-(but-2-enamido)phenyl)amino)-5-chloropyrimidin-2-yl)amino)-4-methylbenzamide]: the “ERK1 Mass Mod (%)” value on Erk1 is recorded as “G (proived a mass modification ≦30%)”. In addition, the IC50 on MEK1 activated ERK1 (setting [1]) was above 1 µM.

With `C=CC(=O)Nc1cc(Cl)ccc1Nc1nc(Nc2cc(OC)ncc2C)ncc1C(F)(F)F` [Compound I-289, N-(5-Chloro-2-((2-((2-methoxy-5-methylpyridin-4-yl)amino)-5-(trifluoromethyl)pyrimidin-4-yl)amino)phenyl)acrylamide], at Erk1, the “ERK1 Mass Mod (%)” value was “E (provided a mass modification of ≧70%)”. Moreover, the IC50 at MEK1 activated ERK1 (setting [1]) is below 0.1 µM.

Regarding `C=CC(=O)NCc1ccccc1Nc1nc(Nc2cc(C(N)=O)ccc2C)ncc1Cl` [Compound I-189, 3-((4-((2-(acrylamidomethyl)phenyl)amino)-5-chloropyrimidin-2-yl)amino)-4-methylbenzamide], at Erk1, the “ERK1 Mass Mod (%)” value is “G (proived a mass modification ≦30%)”. Also, the half-maximal inhibitory concentration (IC50) on MEK1 activated ERK1 (setting [1]) is above 1 µM.

Take `C=CC(=O)Nc1cc(OC)ccc1Nc1nc(Nc2ccc(-n3ccnc3)cc2C#N)ncc1Cl` [Compound I-157, N-(2-((5-chloro-2-((2-cyano-4-(1H-imidazol-1-yl)phenyl)amino)pyrimidin-4-yl)amino)-5-methoxyphenyl)acrylamide]: the “ERK1 Mass Mod (%)” value on Erk1 was “F (provided a mass modification of 31-69%)”. Also, the 50% inhibitory concentration (IC50) on MEK1 activated ERK1 (setting [1]) was above 1 µM.

For the molecule `C=CC(=O)Nc1ccccc1Nc1nc(Nc2cc(OC)nc(N3CCS(=O)(=O)CC3)c2)ncc1C(F)(F)F` [Compound I-291, N-(2-((2-((2-(1,1-Dioxidothiomorpholino)-6-methoxypyridin-4-yl)amino)-5-(trifluoromethyl)pyrimidin-4-yl)amino)phenyl)acrylamide], at Erk1, the “ERK1 Mass Mod (%)” value is on record as “E (provided a mass modification of ≧70%)”. In addition, at MEK1 activated ERK1 (setting [1]), the 50% inhibitory concentration (IC50) was below 0.1 µM.

For the molecule `C=CC(=O)Nc1ccccc1Oc1nc(Nc2ccc(N3CCN(C(C)=O)CC3)cc2OC)ncc1F` [Compound I-260, N-(2-((2-((4-(4-acetylpiperazin-1-yl)-2-methoxyphenyl)amino)-5-fluoropyrimidin-4-yl)oxy)phenyl)acrylamide], the “ERK1 Mass Mod (%)” value on Erk1 is “G (proived a mass modification ≦30%)”. Further, at MEK1 activated ERK1 (setting [1]), the half-maximal inhibitory concentration (IC50) is above 1 µM.

For `C=CC(=O)Nc1cc(C)ccc1Nc1nc(N[C@H]2CCCN(C(C)=O)C2)ncc1C(F)(F)F` [Compound I-19, (S)—N-(2-((2-((1-Acetylpiperidin-3-yl)amino)-5-(trifluoromethyl)pyrimidin-4-yl)amino)-5-methylphenyl)acrylamide], the “ERK1 Mass Mod (%)” value at Erk1 is given as “E (provided a mass modification of ≧70%)”. The IC50 on MEK1 activated ERK1 (setting [1]) is below 0.1 µM.

As to `C=CC(=O)Nc1cc(C)ccc1Nc1nc(Nc2nc(O)ncc2C)ncc1C(F)(F)F` [Compound I-364, N-(2-((2-((2-hydroxy-5-methylpyrimidin-4-yl)amino)-5-(trifluoromethyl)pyrimidin-4-yl)amino)-5-methylphenyl)acrylamide], the “ERK1 Mass Mod (%)” value on Erk1 was “E (provided a mass modification of ≧70%)”. On MEK1 activated ERK1 (setting [1]), the IC50 was below 0.1 µM.

For the molecule `C=CC(=O)Nc1cc(OC)ccc1Nc1nc(Nc2ccc(N3CCNCC3)cc2OC)ncc1Cl` [Compound I-162, N-(2-((5-chloro-2-((2-methoxy-4-(piperazin-1-yl)phenyl)amino)pyrimidin-4-yl)amino)-5-methoxyphenyl)acrylamide], the “ERK1 Mass Mod (%)” value at Erk1 is “E (provided a mass modification of ≧70%)”. In addition, the half-inhibitory concentration (IC50) on MEK1 activated ERK1 (setting [1]) was above 1 µM.

With `C=CC(=O)Nc1cc(C)ccc1Nc1nc(Nc2cc(O)ncc2C)ncc1C(F)(F)F` [Compound I-365, N-(2-((2-((2-hydroxy-5-methylpyridin-4-yl)amino)-5-(trifluoromethyl)pyrimidin-4-yl)amino)-5-methylphenyl)acrylamide], the “ERK1 Mass Mod (%)” value at Erk1 is “E (provided a mass modification of ≧70%)”. Moreover, on MEK1 activated ERK1 (setting [1]), the IC50 is above 1 µM.
